The numbers were not newly measured in patent US20240261254A1, “DIHYDROMYRICETIN NANOEMULSION FORMULATIONS AND METHODS FOR FORMING THEM” (Cheers Health, Inc., priority 2018, published 2024), which cites them from elsewhere.

`O=C1c2c(O)cc(O)cc2O[C@H](c2cc(O)c(O)c(O)c2)[C@H]1O` [DHM, dihydromyricetin]: the BCS class result (low solubility and permeability) was “BCS class IV”. Besides, the oral bioavailability result (reference [39]) is reported as “less than 5%”.
